Reference: US20250345387A1, “CORONAVIRUS THERAPEUTICS AND TREATMENT METHODS” (priority 2020, published 2025)
“Also recorded” adds a separate entry of the source. Where no end group is shown, it is not given here.

Experiments:
MAPK (Erk2) = assay: MAPK phosphorylation ELISA in HUVEC; assay type: cell-based, human; conditions: HUVEC stimulation
Procedure: HUVECs were cultured as above. Lyates were prepared in (1 mM EDTA, 0.5% Triton X-100, 6M urea, 5 mM NaF, 100 uM PMSF, 25 mM sodium pyrophosphate, 1 mM sodium orthovanadate, pH 7.2-7.4, 1× cOmplete™ mini EDTA-free protease inhibitor). BCA protein concentration kit was used to measure protein concentration of each lysate as per manufacturer's instructions (Thermo Scientific). Samples were subjected to ELISAs that measured phosphorylated MAPK and total MAPK levels according to the manufacturer's protocol (R&D Systems). 20 μg or 10 μg of protein from each sample was loaded in duplicate for phosphorylated MAPK and total MAPK readings respectively. Phosphorylated MAPK:total MAPK ratios were determined for each sample. The level of MAPK phosphorylation for all treatment groups were then normalized to that of the no treatment group (NT, EBM only) in each experiment.

Tie2 receptor [1] = target: T1, Tie2 receptor (Mus musculus, UniProt Q02858); assay: Tie2 phosphorylation ELISA in primary mouse lung microvascular endothelial cells (MLMVEC); assay type: cell-based
T1 construct: host or cells: primary mouse lung microvascular endothelial cells (MLMVEC)
Procedure: Primary mouse lung endothelial cells (Cell Biologics) were seeded on 100 mm tissue culture plates in complete endothelial basal media (EBM)(Lonza) supplemented with ‘EGM single quots’ (Lonza). […] Following the 15 minute stimulation, cells were placed on ice and washed twice in ice cold PBS. Cell lysates were prepared for use in IC12 lysis buffer (1% NP-40, 20 mM Tris (pH 8.0), 137 mM NaCl, 10% Glycerol, 2 mM EDTA, 1 mM activated sodium orthovanadate). BCA protein concentration kit was used to measure protein concentration of each lysate as per manufacturer's instructions (Thermo Scientific). Samples were subjected to ELISAs that measured phosphorylated Tie2 and total Tie2 levels according to the manufacturer's protocol (mouse Tie2, R&D Systems). 50 μg or 5 μg of protein from each sample was loaded in triplicate for phosphorylated Tie2 and total Tie2 readings respectively. Phosphorylated Tie2:total Tie2 ratios were determined for each sample. The level of Tie2 phosphorylation for all treatment groups was then normalized to that of the no treatment group (NT, complete EBM only) in each experiment.

Tie2 receptor [2] = target: T2, Tie2 receptor (Homo sapiens, UniProt Q02763); assay: Tie2 phosphorylation ELISA in HUVEC; assay type: cell-based; conditions: 15 minute stimulation
T2 construct: endogenous in cells; host or cells: HUVEC; HMVEC-tert (human dermal microvascular endothelial cells immortalized with telomerase)
Procedure: Human umbilical vein endothelial cells (HUVECs) were seeded on 100 mm tissue culture plates in complete endothelial basal media (EBM)(Lonza) supplemented with ‘EGM single quots’ (Lonza) in 20% O2, 5% CO2 and 37° C. humidified chamber according to manufacturer's recommendations. […] Following the 15 minute stimulation, cells were placed on ice and washed twice in ice cold PBS. Cell lysates were prepared for use in 1C12 lysis buffer (1% NP-40, 20 mM Tris (pH 8.0), 137 mM NaCl, 10% Glycerol, 2 mM EDTA, 1 mM activated sodium orthovanadate). BCA protein concentration kit was used to measure protein concentration of each lysate as per manufacturer's instructions (Thermo Scientific). Samples were subjected to ELISAs that measured phosphorylated Tie2 and total Tie2 levels according to the manufacturers protocol. 20 μg or 5 μg of protein from each sample was loaded in duplicate for phosphorylated Tie2 and total Tie2 readings respectively. Phosphorylated Tie2:total Tie2 ratios were determined for each sample. The level of Tie2 phosphorylation for all treatment groups were then normalized to that of the no treatment group (NT, complete EBM only) in each experiment.

HUVEC [3] = assay: COVID-19 patient serum induced HUVEC integrity destabilization, impedance (xCELLigence RTCA); assay type: cell-based, human
HUVEC [4] = assay: Thrombin- and TNF-α-induced HUVEC destabilisation, impedance (xCELLigence RTCA); assay type: cell-based, human; conditions: for total AUC normalised to vehicle control treatment: equivalent to CI for vehicle control cells
[5] = Pharmacokinetic analysis after intravenous bolus in rats (plasma ELISA); assay type: in vivo, male Sprague Dawley rats
Procedure: Indicated amounts (ug/kg) of parental Vasculotide and MPA-Br were intravenously administered via bolus injection to male Sprague Dawley rats. […] The 120 ug/kg dose provided the greatest sensitivity of detection in these studies and as such, PK measures presented pertain to this particular dose level. […] MPA-Br PK was evaluated in a multi-dose (MD) intravenous setting at 120 ug/kg once every 24 hours for three consecutive days.

[6] = system: histamine-induced vascular leakage; assay: Cutaneous histamine challenge, Evans blue dye extravasation; assay type: in vivo, male FVB mice; conditions: prophylactic IP dose one hour prior to cutaneous histamine challenge
From the text: 10-week old male FVB mice were purchased from Jackson Laboratories. Mice were housed in a Vivarium on a standard light:dark cycle and were given free access to food and water. On day 0 mice were anesthetized with isoflurane and the entire dorsal area was shaved with an electric shaver. Residual hair was removed via application of depilatory cream. Residual cream was removed with sterile gauze and water. […] Immediately following Evans blue dye administration, and while still under anesthesia, a single PBS injection (dorsal, intradermal, 50 ul) and three equally spaced histamine injections (dorsal, intradermal, 1.25 ug contained in 50 ul) were applied. Once the intradermal injections were complete, the mice were removed from anesthesia and were placed back into their housing cages for 25 minutes.
Cardiac transperfusion After 25 minutes of exposure to histamine the mice were placed under anesthesia with an appropriate volume of 2.5% avertin (100 ul/10 g body weight via intraperitoneal injection). Once a deep plane of anesthesia was produced the mice were place and secured in a supine position, the chest was surgically opened, the heart was exposed and a catheter terminating in a 23 gauge needle was inserted into the left ventricle. Once the catheter was securely in place, a cut in the right atria was performed and 25 ml of cold PBS was delivered, via the catheter at 100 mmHg to flush out all intravascular Evans blue dye. Once a mouse was effectively perfused the dorsal skin was surgically removed. Four, 12 mm skin biopsies were collected (1PBS, 3 histamine) for each mouse using a standardized skin punch. In all cases, the biopsy that received PBS served as a baseline control for that individual mouse.
Quantification of Evans blue dye extravassation Skin biopsies were placed in labelled tubes and placed in a 60 degree Celsius oven for 16 hrs to removed all moisture. […] An Evans blue dye standard curve encompassing high and low experimental data points was constructed such that the amount of Evans blue dye extravassation (ug/g of skin) could be calculated.

recombinant human IgG Fc = target: T3, recombinant human IgG Fc (Homo sapiens, UniProt P01857); assay: Tryptophan fluorescence spectroscopy binding to human IgG Fc (negative control); conditions: increasing ligand concentrations
T3 construct: purchased R&D Systems
From the text: Ligand and receptor interaction. […] Data was compiled using SoftMax and analyzed using Prism.

[7] = system: Influenza A virus HKx31 (H3N2); assay type: in vivo, C57BL/6J mice
[8] = 120 ug/kg intravenous bolus, parental Vasculotide vs MPA-Br
[9] = day 6, MPA-Br 200 ng/day vs parental Vasculotide 500 ng

T1 sequence (Q02858 23-1122): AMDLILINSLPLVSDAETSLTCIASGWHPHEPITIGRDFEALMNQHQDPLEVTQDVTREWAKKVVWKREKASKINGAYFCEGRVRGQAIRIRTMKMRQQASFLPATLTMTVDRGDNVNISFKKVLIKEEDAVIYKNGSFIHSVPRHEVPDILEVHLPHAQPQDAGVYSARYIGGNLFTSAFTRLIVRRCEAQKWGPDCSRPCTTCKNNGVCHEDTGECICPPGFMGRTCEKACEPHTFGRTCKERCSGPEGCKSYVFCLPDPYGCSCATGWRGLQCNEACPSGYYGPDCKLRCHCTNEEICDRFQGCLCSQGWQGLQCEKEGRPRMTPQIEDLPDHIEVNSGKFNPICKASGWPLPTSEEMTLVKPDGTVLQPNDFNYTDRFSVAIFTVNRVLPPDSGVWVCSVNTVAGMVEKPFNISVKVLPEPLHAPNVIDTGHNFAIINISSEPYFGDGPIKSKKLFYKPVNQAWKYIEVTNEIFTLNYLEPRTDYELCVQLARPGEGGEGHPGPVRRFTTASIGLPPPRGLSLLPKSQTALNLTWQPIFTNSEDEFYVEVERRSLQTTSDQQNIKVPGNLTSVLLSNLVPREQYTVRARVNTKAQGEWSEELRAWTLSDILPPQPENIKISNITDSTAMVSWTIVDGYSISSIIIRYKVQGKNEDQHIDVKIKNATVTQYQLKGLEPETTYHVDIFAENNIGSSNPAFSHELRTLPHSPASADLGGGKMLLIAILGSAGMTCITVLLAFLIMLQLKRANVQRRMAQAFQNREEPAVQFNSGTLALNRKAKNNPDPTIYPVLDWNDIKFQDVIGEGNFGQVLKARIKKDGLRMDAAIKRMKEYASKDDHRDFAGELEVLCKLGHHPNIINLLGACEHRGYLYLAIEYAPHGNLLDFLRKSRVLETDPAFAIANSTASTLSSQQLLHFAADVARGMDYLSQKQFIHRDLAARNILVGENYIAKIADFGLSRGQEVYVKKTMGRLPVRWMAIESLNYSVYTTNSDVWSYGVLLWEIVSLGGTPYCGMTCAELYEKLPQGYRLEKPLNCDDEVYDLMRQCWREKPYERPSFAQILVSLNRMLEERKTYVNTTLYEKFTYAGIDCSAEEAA
T2 sequence (Q02763 23-1124): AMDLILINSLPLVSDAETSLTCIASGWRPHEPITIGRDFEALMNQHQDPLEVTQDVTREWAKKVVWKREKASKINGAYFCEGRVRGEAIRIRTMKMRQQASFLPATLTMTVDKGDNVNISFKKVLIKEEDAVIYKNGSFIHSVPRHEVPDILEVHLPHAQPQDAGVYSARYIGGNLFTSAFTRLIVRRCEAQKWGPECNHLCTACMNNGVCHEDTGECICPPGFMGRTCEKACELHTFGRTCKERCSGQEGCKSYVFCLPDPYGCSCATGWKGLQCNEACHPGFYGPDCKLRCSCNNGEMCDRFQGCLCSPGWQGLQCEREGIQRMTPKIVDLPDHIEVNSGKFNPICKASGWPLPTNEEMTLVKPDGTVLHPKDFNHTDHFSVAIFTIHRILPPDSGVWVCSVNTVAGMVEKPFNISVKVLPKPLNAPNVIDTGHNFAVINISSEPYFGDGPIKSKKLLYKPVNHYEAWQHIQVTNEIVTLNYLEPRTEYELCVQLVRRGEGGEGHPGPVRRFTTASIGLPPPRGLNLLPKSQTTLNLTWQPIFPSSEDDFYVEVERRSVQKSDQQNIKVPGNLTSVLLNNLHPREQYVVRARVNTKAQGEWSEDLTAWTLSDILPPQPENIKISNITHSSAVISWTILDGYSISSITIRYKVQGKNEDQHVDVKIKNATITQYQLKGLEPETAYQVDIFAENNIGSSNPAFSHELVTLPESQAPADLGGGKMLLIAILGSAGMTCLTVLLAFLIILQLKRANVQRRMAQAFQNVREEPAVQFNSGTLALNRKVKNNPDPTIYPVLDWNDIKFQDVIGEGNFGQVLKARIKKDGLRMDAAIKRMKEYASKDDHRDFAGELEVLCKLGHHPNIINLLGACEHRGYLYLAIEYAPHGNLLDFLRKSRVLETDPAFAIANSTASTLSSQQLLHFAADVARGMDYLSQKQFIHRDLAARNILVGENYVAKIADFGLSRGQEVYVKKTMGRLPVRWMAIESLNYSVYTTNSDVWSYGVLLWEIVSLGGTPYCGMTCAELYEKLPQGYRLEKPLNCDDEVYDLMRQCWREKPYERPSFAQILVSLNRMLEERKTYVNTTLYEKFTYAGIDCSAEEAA

With “MPA-Br: T7 peptide linked via 3-mercaptopropionic acid to a bromoacetimide-activated 10K PEG tetramer through a linear sulfane moiety (HHHRHSF; not fully specified (N-terminus); also: linked via 3-mercaptopropionic acid to bromoacetimide-activated 10K PEG tetramer (sulfane), site not given here)” the “activation of MAPK (phosphorylated MAPK:total MAPK)” value (MAPK (Erk2)) was “downstream activation of MAPK”, the “fold lower concentration for statistically significant Tie2 activation vs parental Vasculotide” value (Tie2 receptor [1]) was 10 fold and the “doses significantly activating Tie2 (pTie2/total Tie2 vs no treatment)” value (Tie2 receptor [2]) was 10-100 ng. The “CI over time after COVID-19 serum challenge” value (HUVEC [3]) was “restoration of CI loss”, the “AUC normalised to vehicle control” value (HUVEC [3]; COVID-19 patient sample IgM, 0.5 to 5 ng/mL MPA-Br) was “statistically significant increase in normalized CI” and the “cell index difference between cells incubated with serum+AV-001 and serum+vehicle control” value (HUVEC [3]; COVID-19 serum (IgG8, IgM5, IgM6) compared to HD) was “Significant differences”. The “total AUC normalised to vehicle control treatment” value (“total AUC normalised” for short) (HUVEC [3]; COVID-19 serum IgG8 and IgM6 (FIG. 10D-E), both AV-001 doses) was “statistically significant increase in CI”, the “total AUC normalised” value (HUVEC [3]; serum HD1, high dose 5 ng/mL) was “statistically significant increase in normalised cell impedance” and the “normalized CI overtime compared to untreated HUVEC” value (HUVEC [4]; TNF-a challenge (0.5 ng/mL), MPA-Br 5 ng/mL) was “significant increase in normalized CI”. For the same substance, the “total AUC normalised” value (HUVEC [4]; TNF-a challenged cells, MPA-Br 5 ng/mL) was “statistically significant increase in normalized CI”, the “normalized CI overtime compared to untreated HUVEC” value (HUVEC [4]; thrombin challenge (0.25 ng/mL), MPA-Br 0.5 to 5 ng/mL) was “significant increase in normalized CI” and the “total AUC normalised” value (HUVEC [4]; thrombin challenged cells, MPA-Br 0.5 to 5 ng/mL) was “statistically significant increase in normalized CI”. The “drug accumulation, multi-dose (MD) PK vs single dose” value ([5]; 120 ug/kg IV once every 24 hours for three consecutive days) was “no drug accumulation”, the clearance rate [5, 8] was “similar” and the volume of distribution [5, 8] was “similar”. For the same substance, the “vascular leakage (extravassation of Evans blue dye) vs vehicle treated mice” value [6] was “significantly less vascular leakage”, the “binding to recombinant human IgG Fc (fluorescence intensity)” value (recombinant human IgG Fc) was “no dose dependent increase in fluorescence intensity; also recorded: No saturation of binding” and the arterial oxygenation [7, 9] was “superiority to parental Vasculotide”. The “protection from wasting (fraction of initial body weight)” value [7, 9] was “superiority to parental Vasculotide”, the activity score ([7]; mouse, in vivo) was “significantly improved” and the “all study endpoints compared to parental Vasculotide” value ([7]; mouse, in vivo) was “performed equal, or better than parental Vasculotide”. The “lung oxygenation (SpO2)” value ([7]; mouse, in vivo) was “significantly improved”, the “thermal regulation (body temperature)” value ([7]; mouse, in vivo) was “significantly improved” and the “overall survival of infected mice” value ([7]; mouse, in vivo, ip) was “significantly improved overall survival”.
